Assay results published in patent publication US8927547B2, “Pyrimidine derivatives” (Noviga Research AB, priority 2010, dated 2015).

Key:
Type in all cases: cell-based
[1] = tested on: CCRF-CEM cancer cells - leukaemia; experiment: Fluorometric Microculture Cytotoxicity Assay (FMCA), CCRF-CEM; details: Homo sapiens, 72 h incubation
From the text: (§1) The Fluorometric Microculture Cytotoxicity Assay, FMCA, is a three day non-clonogenic microplate-based cell viability assay used for measurement of the cytotoxic and/or cytostatic effect of compounds in vitro (Lindhagen, E., et al. Nat Protoc, 2008. 3(8): p. 1364-9). FMCA (Larsson, R. and P. Nygren, Anticancer Res, 1989. 9(4): p. 1111-9) represents a valuable method to measure cytotoxicity in a number of cell types, both cell lines and primary cells from patients (Larsson, R., et al., Int J Cancer, 1992. 50(2): p. 177-85; Fridborg, H., et al., Eur J Cancer, 1999. 35(3): p. 424-32; Dhar, S., et al., Br J Cancer, 1996. 74(6): p. 888-96).
(§2) FMCA is based on the principle that fluorescein diacetate (FDA) is converted to the fluorescent probe fluorescein by esterases in the plasma membranes of living cells. For experiments, 96 or 384-well microplates are prepared with compounds and stored at −70° C. until use. Cells are then seeded into the drug-prepared plates and placed in an incubator for 72 h. On the last day of incubation, the plates are washed and a buffer containing FDA is added and incubated with the cells for 45 minutes. Finally the fluorescence per well is measured in a fluorometer and a Survival Index % (SI) for each compound-treated well is calculated with the equation: Compound-treated cells minus blank divided by control cells minus blank. A high SI-value indicates a large percentage of living cells and vice versa.
In subsequent experiments, compounds were tested, along with kinase inhibitors (dasatinib, pazopanib, sorafenib, and sunitinib) as described above. Initially, the acute lymphoblastic leukaemia cell line CCRF-CEM (see e.g. Foley G E, et al. Cancer 1965, 18, 522-529) was used throughout. In the assay plates, medium was added to six empty wells (blank wells) and wells were filled with PBS and cell suspension and served as control wells. SI-values were then calculated for each compound-treated well as described above. All experiments were conducted twice and a new batch of plates was prepared for each experiment.
For dose-response experiments, 384-well plates were prepared as follows:
(§3) Compounds of the invention as well as kinase inhibitors sorafenib, sunitinib, dasatinib, and pazopanib (reference compounds) were diluted with PBS to a concentration which was ten-times higher than the desired starting concentration. Then, a Biomek 2000 liquid handling system was employed to serially dilute the compounds in a deep-well 384-well plate. From this plate, assay plates containing 5 μl compound per well were prepared with the Biomek 2000. Certain compounds precipitated when diluted with PBS, and these compounds were therefore prepared in a 96-well plate manually as described above using culture medium RPMI 1640 instead of PBS.
(§4) The compounds were also tested at five concentrations, with five times serial dilution on the following cell types: CCRF-CEM, hTERT-RPE1 (normal retinal epithelial cells), hRPTEpiC (normal renal cells) and PBMC (peripheral blood mononuclear cells). Each experiment was performed three times, except for PBMC and hRPTEpiC, which were performed twice. SI-values were calculated, graphs were plotted using GraphPadPrism 5.0 (GraphPad Software Inc. La Jolla, Calif.) and EC50-values for each cell type and compound were determined from the curves.

HCT116 = experiment: FMCA, HCT116 colon cancer; details: Homo sapiens, HCT-116, read-out: EC50 (μM) in various cancer cell lines: HCT116
From the text: as §1, §2, §3, §4
(§5) The compounds of the invention were also tested on further cancer cell lines related to colon cancer (HCT116; see e.g Brattain M G, et al. Cancer Res. 1981, 41, 1751-1756), breast cancer (MCF7; see e.g. Soule H D, et al. J. Natl. Cancer Inst. 1973, 51, 1409-1416), teniposide-resistant leukaemia (CEM/VM1; see e.g. Danks M K et al. Cancer Res. 1987, 47, 1297-1301), lung cancer (H69; see e.g. Gazdar A F, et al. Cancer Res. 1980, 40, 3502-3507), doxorubicin-resistant lung cancer (H69AR; see e.g. Mirski S E, et al. Cancer Res. 1987, 47, 2594-2598), myeloma (RPMI 8226; see e.g. Matsuoka Y, et al. Proc. Soc. Exp. Biol. Med. 1967, 125, 1246-1250), doxorubicin-resistant myeloma (8226/Dox40; see e.g. Dalton W S et al. Blood 1989, 15,747-752), lymphoma (U-937, see e.g. Sundstrom C, et al. Int. J. Cancer 1976, 17, 565-577), vincristin-resistant lymphoma (U-937-vcr; see e.g. Botling J, et al. Int J Cancer 1994, 15; 58 (2), 269-274), ovarian cancer (A2780; see e.g. Hamilton T C, et al. Semin Oncol. 1984, 11, 285-298), doxorubicin-resistant ovarian cancer (A2780/Adr), cisplatin-resistant ovarian cancer (A2780/Cis; see e.g. Behrens B C, et al. Cancer Res. 1987, 47, 414-418), renal cancer (ACHN; see e.g. Borden E C, et al. Cancer Res. 1982, 42(12), 4948-4953), pancreatic cancer (PANC-1, BxPC-3, and MIA PaCa-2; see e.g. Lieber M, et al. Int. […]

MCF7 = experiment: FMCA, MCF7 breast cancer; details: Homo sapiens, read-out: EC50 (μM) in various cancer cell lines: MCF7
From the text: as §1, §2, §3, §4, §5

CEM/VM1 = experiment: FMCA, CEM/VM1 teniposide-resistant leukaemia; details: Homo sapiens, read-out: EC50 (μM) in various cancer cell lines: CEM/VM1
From the text: as §1, §2, §3, §4, §5

H69 = experiment: FMCA, H69 lung cancer; details: Homo sapiens, NCI-H69, read-out: EC50 (μM) in various cancer cell lines: H69
From the text: as §1, §2, §3, §4, §5

RPMI 8226 = experiment: FMCA, RPMI 8226 myeloma; details: Homo sapiens, read-out: EC50 (μM) in various cancer cell lines: RPMI 8226
From the text: as §1, §2, §3, §4, §5

8226/Dox40 = experiment: FMCA, 8226/Dox40 doxorubicin-resistant myeloma; details: read-out: EC50 (μM) in various cancer cell lines: 8226/Dox40
From the text: as §1, §2, §3, §4, §5

ACHN = experiment: FMCA, ACHN renal cancer; details: Homo sapiens, read-out: EC50 (μM) in various cancer cell lines: ACHN
From the text: as §1, §2, §3, §4, §5

U-937 = experiment: FMCA, U-937 lymphoma; details: Homo sapiens, read-out: EC50 (μM) in various cancer cell lines: U-937
From the text: as §1, §2, §3, §4, §5

U-937-vcr = experiment: FMCA, U-937-vcr vincristin-resistant lymphoma; details: read-out: EC50 (μM) in various cancer cell lines: U-937-ver
From the text: as §1, §2, §3, §4, §5

A2780 = experiment: FMCA, A2780 ovarian cancer; details: Homo sapiens, read-out: EC50 (μM) in various cancer cell lines: A2780
From the text: as §1, §2, §3, §4, §5

A2780/Adr = experiment: FMCA, A2780/Adr doxorubicin-resistant ovarian cancer; details: read-out: EC50 (μM) in various cancer cell lines: A2780/Adr
From the text: as §1, §2, §3, §4
(§6) The compounds of the invention were also tested on further cancer cell lines related to colon cancer (HCT116; see e.g Brattain M G, et al. Cancer Res. 1981, 41, 1751-1756), breast cancer (MCF7; see e.g. Soule H D, et al. J. Natl. Cancer Inst. 1973, 51, 1409-1416), teniposide-resistant leukaemia (CEM/VM1; see e.g. Danks M K et al. Cancer Res. 1987, 47, 1297-1301), lung cancer (H69; see e.g. Gazdar A F, et al. Cancer Res. 1980, 40, 3502-3507), doxorubicin-resistant lung cancer (H69AR; see e.g. Mirski S E, et al. Cancer Res. 1987, 47, 2594-2598), myeloma (RPMI 8226; see e.g. Matsuoka Y, et al. Proc. Soc. Exp. Biol. Med. 1967, 125, 1246-1250), doxorubicin-resistant myeloma (8226/Dox40; see e.g. Dalton W S et al. Blood 1989, 15,747-752), lymphoma (U-937, see e.g. Sundstrom C, et al. Int. […]

A2780/Cis = experiment: FMCA, A2780/Cis cisplatin-resistant ovarian cancer; details: A2780cis, read-out: EC50 (μM) in various cancer cell lines: A2780/Cis
From the text: as §1, §2, §3, §4, §6

H69AR = experiment: FMCA, H69AR doxorubicin-resistant lung cancer; details: Homo sapiens, read-out: EC50 (μM) in various cancer cell lines: H69 AR
From the text: as §1, §2, §3, §4, §5

BxPC-3 = experiment: FMCA, BxPC-3 pancreatic cancer; details: Homo sapiens, read-out: EC50 (μM) in various cancer cell lines: BxPC-3
From the text: as §1
as §2, with “versa. […]” for “versa.”
(§7) The compounds were also tested at five concentrations, with five times serial dilution on the following cell types: CCRF-CEM, hTERT-RPE1 (normal retinal epithelial cells), hRPTEpiC (normal renal cells) and PBMC (peripheral blood mononuclear cells). […] SI-values were calculated, graphs were plotted using GraphPadPrism 5.0 (GraphPad Software Inc. La Jolla, Calif.) and EC50-values for each cell type and compound were determined from the curves. […]

PANC-1 = experiment: FMCA, PANC-1 pancreatic cancer; details: Homo sapiens, read-out: EC50 (μM) in various cancer cell lines: PANC-1
From the text: as §1
as §2, with “versa. […]” for “versa.”
as §7

MIA PaCa-2 = experiment: FMCA, MIA PaCa-2 pancreatic cancer; details: Homo sapiens, read-out: EC50 (μM) in various cancer cell lines: MIA PaCa-2
From the text: as §1
as §2, with “versa. […]” for “versa.”
as §7

Row | Compound | EC50 [1] [nM] | EC50 (HCT116) [µM] | EC50 (MCF7) [µM] | EC50 (CEM/VM1) [µM] | EC50 (H69) [µM] | EC50 (RPMI 8226) [µM] | EC50 (8226/Dox40) [µM] | EC50 (ACHN) [µM] | EC50 (U-937) [µM] | EC50 (U-937-vcr) [µM] | EC50 (A2780) [µM] | EC50 (A2780/Adr) [µM] | EC50 (A2780/Cis) [µM] | EC50 (H69AR) [µM] | EC50 (BxPC-3) [µM] | EC50 (PANC-1) [µM] | EC50 (MIA PaCa-2) [µM]
1 | c1cc(Nc2nccc(NCc3ccc4[nH]ccc4c3)n2)c2cc[nH]c2c1 [Example 1, N^4-(1H-indol-5-ylmethyl)-N^2-(1H-indol-4-yl)pyrimidine-2,4-diamine] | 330 | 6.7 | 9 | 0.12 | 10.8 | 0.5 | 0.37 | 2.54 | 0.07 | 0.07 | 0.7 | 2.4 | 0.35 |  |  |  | 
2 | COc1ccc2[nH]cc(CCNc3nccc(NCc4ccc5[nH]ccc5c4)n3)c2c1 [Example 12, N^4-(1H-indol-5-ylmethyl)-N^2-[2-(5-methoxy-1H-indol-3-yl)ethyl]pyrimidine-2,4-diamine] | 760 | 0.63 | 3.88 | 0.17 | 7.84 | 0.53 | 1.81 | 1.9 | 0.27 | 0.3 | 0.47 | 1.9 | 0.61 | 0.27 | < 0.1 | < 0.1 | < 0.1
3 | c1cc(Nc2nccc(NCc3ccc4[nH]cnc4c3)n2)c2cc[nH]c2c1 [Example 19, N^4-(1H-benzo[d]imidazol-5-ylmethyl)-N^2-(1H-indol-4-yl)pyrimidine-2,4-diamine] | 1020 | 9.83 | 28.5 | 1.33 | 30.7 | 12.8 | 46.3 | 25.2 | 1.47 | 1.81 | 1.59 | 12.6 | 1.99 |  | < 1 | < 1 | < 1
4 | Cc1cc2cc(Nc3ccnc(NCc4ccc5[nH]ccc5c4)n3)ccc2[nH]1 [Example 24, N^2-(1H-indol-5-ylmethyl)-N^4-(2-methyl-1H-indol-5-yl)pyrimidine-2,4-diamine] | 380 | 0.51 | 4.43 | 0.21 | 9.35 | 0.23 | 0.41 | 1.26 | 0.19 | 0.19 | 0.28 | 0.6 | 0.22 | 0.46 |  |  | 
5 | Cc1cc(NCc2ccc3[nH]ncc3c2)nc(Nc2cccc3[nH]ccc23)n1 [Example 37, N^4-(1H-indazol-5-ylmethyl)-N^2-(1H-indol-4-yl)-6-methylpyrimidine-2,4-diamine] | 420 | 6.2 | 4.92 | 0.23 | 11.6 | 0.81 | 2.02 | 3.08 | 0.29 | 0.34 | 0.45 | 1.71 | 0.32 |  | < 0.1 | < 0.1 | < 0.1
